Source: ChEMBL document CHEMBL5674860, “Optimized Dual-Glo Assay to identify co-culture-induced drug vulnerabilities in 3D CRC models” (2024)

Legend:
Type in all cases: functional, Homo sapiens
Set-up in all cases: dose or concentration left out as unconfirmed
[1] = test system: Colon cancer organoid; assay: Optimized Dual-Glo assay to identify co-culture induced drug vulnerabilities using donated chemical probes and chemogenomics kinase set in O06 CRC organoid and F06 CAF mono and co-culture. […] Cell viability is reported both mono and co-culture models.
[2] = test system: Colon cancer organoid; assay: Optimized Dual-Glo assay to identify co-culture induced drug vulnerabilities using donated chemical probes and chemogenomics kinase set in O14 CRC organoid and F14 CAF mono and co-culture. […] Cell viability is reported both mono and co-culture models.
[3] = test system: Colon cancer organoid; assay: Optimized Dual-Glo assay to identify co-culture induced drug vulnerabilities using donated chemical probes and chemogenomics kinase set in O20 CRC organoid and F20 CAF mono and co-culture. […] Cell viability is reported both mono and co-culture models.
[4] = Culture type Co-Culture, Transduced with Lucferase2-P2A-EGFP lentivirus
[5] = Culture type Co-Culture, Transduced with Renilla-dsRed lentivirus
[6] = Culture type Mono-Culture, Transduced with Lucferase2-P2A-EGFP lentivirus
[7] = Culture type Mono-Culture, Transduced with Renilla-dsRed lentivirus

| SMILES | Cell Viability [1, 4] [%] | Cell Viability [1, 5] [%] | Cell Viability [1, 6] [%] | Cell Viability [1, 7] [%] | Cell Viability [2, 4] [%] | Cell Viability [2, 5] [%] | Cell Viability [2, 6] [%] | Cell Viability [2, 7] [%] | Cell Viability [3, 4] [%] | Cell Viability [3, 5] [%] | Cell Viability [3, 6] [%] | Cell Viability [3, 7] [%] |
| --- | --- | --- | --- | --- | --- | --- | --- | --- | --- | --- | --- | --- |
| CN(C)c1ncnc(-c2ccc3nc(Nc4cc(CN5CCN(C(=O)CC(F)(F)F)CC5)ccn4)[nH]c3c2)c1Cl [BAY-440] | 92.9994 | 174.385 | 85.2405 | 88.7418 | 103.771 | 112.238 | 114.79 | 113.849 | 123.006 | 109.622 | 117.784 | 126.413 |
| Cc1cc2c(cc1N1C(=O)c3cccc4c(CCCO)ccc(c34)C1=O)n(C)c(=O)n2C | 83.3962 | 164.269 | 66.8328 | 103.172 | 46.4165 | 127.225 | 64.4307 | 101.303 | 35.0091 | 231.762 | 20.745 | 97.4451 |
| CN([C@@H]1CCc2c(CC(=O)O)c3ccccc3n2C1)S(=O)(=O)c1ccc(F)cc1 [MK-7246] | 127.259 | 149.477 | 87.9847 | 110.238 | 76.0592 | 112.144 | 82.2127 | 107.31 | 94.6909 | 109.932 | 110.185 | 99.3239 |
| Cc1nc(C2CCN(C(=O)c3ccc(OC(F)(F)F)cc3N)CC2)c2ncc(N3CCN(C)CC3)cc2n1 [BAY-693] | 114.208 | 166.908 | 75.386 | 110.093 | 86.7565 | 92.2226 | 129.525 | 92.5719 | 93.857 | 129.276 | 111.777 | 88.9169 |
| COc1cc(C(=O)N2CC[C@@H](O)[C@@H](N)C2)cc2nc(-c3cc4ccccc4n3CC3CC3)n(C)c12.Cl | 124.227 | 121.721 | 98.6493 | 122.476 | 132.512 | 122.105 | 79.0484 | 89.8768 | 98.8385 | 114.018 | 83.2381 | 78.6997 |
| COc1cc(N2CCC(O)CC2)ccc1Nc1cc(Nc2ccccc2S(=O)(=O)C(C)C)c2cc[nH]c2n1 | 85.241 | 81.2438 | 122.712 | 109.159 | 73.6565 | 103.778 | 68.2856 | 78.3072 | 108.471 | 84.332 | 70.9146 | 86.2422 |
| CN(C)C(=O)N1CC[C@H](NC2=Nc3cc(F)ccc3N(CC(F)F)c3ccc(Cl)cc32)C1 | 158.864 | 159.783 | 102.875 | 125.077 | 130.518 | 98.5664 | 108.387 | 90.4728 | 71.357 | 98.2431 | 112.934 | 109.328 |
